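1) Cells in 96-well plates. 2) Compound, 48 h, 5 concentrations. 3) Linear interpolation between surrounding doses. 4) Unreached endpoint = highest concentration. GI50 = concentration required for 50% inhibition of growth.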 Calls of active or inactive are those of the source. Rule as the data show it: active = GI50 up to about 1.1 µM and inactive = higher.
Legend:
Assay in all cases: NCI tumour cell line growth inhibition, 48 h
[1] = tested on: A498
[2] = tested on: A549
[3] = tested on: CAKI-1
[4] = tested on: CCRF-CEM
[5] = tested on: COLO 205
[6] = tested on: DLD-1
[7] = tested on: DMS-114
[8] = tested on: DMS-273
[9] = tested on: EKVX
[10] = tested on: HCC 2998
[11] = tested on: HCT-116
[12] = tested on: HCT-15
[13] = tested on: HL-60
[14] = tested on: HOP-18
[15] = tested on: HOP-62
[16] = tested on: HOP-92
[17] = tested on: HT-29
[18] = tested on: IGROV-1
[19] = tested on: K562
[20] = tested on: KM-20L2
[21] = tested on: KM12
[22] = tested on: LOX IMVI
[23] = tested on: M19-MEL
[24] = tested on: MCF7
[25] = tested on: MOLT-4
[26] = tested on: Malme-3M
[27] = tested on: NCI-H226
[28] = tested on: NCI-H23
[29] = tested on: NCI-H460
[30] = tested on: NCI/ADR-RES
[31] = tested on: OVCAR-3
[32] = tested on: OVCAR-4
[33] = tested on: OVCAR-5
[34] = tested on: OVCAR-8
[35] = tested on: RPMI-8226
[36] = tested on: RXF 393
[37] = tested on: SF-268
[38] = tested on: SF-295
[39] = tested on: SF-539
[40] = tested on: SK-MEL-28
[41] = tested on: SK-MEL-2
[42] = tested on: SK-MEL-5
[43] = tested on: SK-OV-3
[44] = tested on: SN12C
[45] = tested on: SNB-19
[46] = tested on: SNB-75
[47] = tested on: SNB-78
[48] = tested on: SW-620
[49] = tested on: U-251
[50] = tested on: UACC-257
[51] = tested on: UACC-62
[52] = tested on: UO-31
[53] = tested on: XF498
[54] = tested on: NCI-H522

## Cc1cccc2nc3c(C(=O)NCCN(C)C)cccc3cc12
[1]
  GI50: 1.37 µM (inactive)
[2]
  GI50: 1.09 µM (active)
[3]
  GI50: 0.07 µM (active)
[4]
  GI50: 1.25 µM (inactive)
[5]
  GI50: 0.681 µM (active)
[6]
  GI50: 1.42 µM (inactive)
[7]
  GI50: 1.31 µM (inactive)
[8]
  GI50: 0.929 µM (active)
[9]
  GI50: 1.99 µM (inactive)
[10]
  GI50: 2.05 µM (inactive)
[11]
  GI50: 0.668 µM (active)
[12]
  GI50: 2.33 µM
[13]
  GI50: 1.14 µM (inactive)
[14]
  GI50: 2.04 µM (inactive)
[15]
  GI50: 1.72 µM (inactive)
[16]
  GI50: 0.776 µM (active)
[17]
  GI50: 0.791 µM (active)
[18]
  GI50: 2.31 µM (inactive)
[19]
  GI50: 1.8 µM (inactive)
[20]
  GI50: 1.41 µM (inactive)
[21]
  GI50: 2.29 µM (inactive)
[22]
  GI50: 1.26 µM (inactive)
[23]
  GI50: 1.52 µM (inactive)
[24]
  GI50: 2.2 µM (inactive)
[25]
  GI50: 0.337 µM (active)
[26]
  GI50: 1.38 µM (inactive)
[27]
  GI50: 1.07 µM (active)
[28]
  GI50: 2.07 µM (inactive)
[29]
  GI50: 0.705 µM (active)
[30]
  GI50: 1.95 µM (inactive)
[31]
  GI50: 2.05 µM (inactive)
[32]
  GI50: 1.83 µM (inactive)
[33]
  GI50: 2.27 µM (inactive)
[34]
  GI50: 1.07 µM (active)
[35]
  GI50: 0.789 µM (active)
[36]
  GI50: 1.45 µM (inactive)
[37]
  GI50: 1.68 µM (inactive)
[38]
  GI50: 1.51 µM (inactive)
[39]
  GI50: 2.01 µM (inactive)
[40]
  GI50: 1.85 µM (inactive)
[41]
  GI50: 1.88 µM (inactive)
[42]
  GI50: 1.64 µM (inactive)
[43]
  GI50: 2.58 µM (inactive)
[44]
  GI50: 1.19 µM (inactive)
[45]
  GI50: 0.94 µM (active)
[46]
  GI50: 2.25 µM (inactive)
[47]
  GI50: 2.62 µM (inactive)
[48]
  GI50: 1 µM (active)
[49]
  GI50: 2.52 µM (inactive)
[50]
  GI50: 0.893 µM (active)
[51]
  GI50: 1.68 µM (inactive)
[52]
  GI50: 1.27 µM (inactive)
[53]
  GI50: 1.58 µM (inactive)

## CC(NCCS(=O)(=O)O)C(=O)O (centres undefined)
[1]
  GI50: > 77.3 µM (inactive)
[2]
  GI50: > 100 µM (inactive)
[3]
  GI50: > 100 µM (inactive)
[4]
  GI50: > 100 µM (inactive)
[5]
  GI50: > 100 µM (inactive)
[6]
  GI50: > 100 µM (inactive)
[7]
  GI50: > 100 µM (inactive)
[8]
  GI50: > 100 µM (inactive)
[9]
  GI50: > 100 µM (inactive)
[10]
  GI50: > 100 µM (inactive)
[11]
  GI50: > 100 µM (inactive)
[12]
  GI50: > 100 µM
[13]
  GI50: > 100 µM (inactive)
[14]
  GI50: > 100 µM (inactive)
[15]
  GI50: > 100 µM (inactive)
[16]
  GI50: > 100 µM (inactive)
[17]
  GI50: > 100 µM (inactive)
[18]
  GI50: > 100 µM (inactive)
[19]
  GI50: > 100 µM (inactive)
[20]
  GI50: > 100 µM (inactive)
[21]
  GI50: > 100 µM (inactive)
[22]
  GI50: > 100 µM (inactive)
[23]
  GI50: > 100 µM (inactive)
[24]
  GI50: > 100 µM (inactive)
[25]
  GI50: > 100 µM (inactive)
[26]
  GI50: > 100 µM (inactive)
[27]
  GI50: > 100 µM (inactive)
[28]
  GI50: > 100 µM (inactive)
[29]
  GI50: > 100 µM (inactive)
[54]
  GI50: > 100 µM (inactive)
[30]
  GI50: > 100 µM (inactive)
[31]
  GI50: > 45.6 µM (inactive)
[32]
  GI50: > 100 µM (inactive)
[33]
  GI50: > 100 µM (inactive)
[34]
  GI50: > 100 µM (inactive)
[35]
  GI50: > 100 µM (inactive)
[36]
  GI50: > 100 µM (inactive)
[37]
  GI50: > 100 µM (inactive)
[38]
  GI50: > 100 µM (inactive)
[39]
  GI50: > 100 µM (inactive)
[40]
  GI50: > 100 µM (inactive)
[41]
  GI50: > 100 µM (inactive)
[42]
  GI50: > 100 µM (inactive)
[43]
  GI50: > 100 µM (inactive)
[44]
  GI50: > 100 µM (inactive)
[45]
  GI50: > 100 µM (inactive)
[46]
  GI50: > 100 µM (inactive)
[47]
  GI50: 99.8 µM (inactive)
[48]
  GI50: > 100 µM (inactive)
[49]
  GI50: > 100 µM (inactive)
[50]
  GI50: > 100 µM (inactive)
[51]
  GI50: > 100 µM (inactive)
[52]
  GI50: > 100 µM (inactive)
[53]
  GI50: > 100 µM (inactive)

## CO/C=C1\OC(=O)C=C1OC
[1]
  GI50: > 100 µM (inactive)
[2]
  GI50: > 100 µM (inactive)
[3]
  GI50: > 100 µM (inactive)
[4]
  GI50: > 100 µM (inactive)
[5]
  GI50: > 100 µM (inactive)
[6]
  GI50: > 100 µM (inactive)
[7]
  GI50: > 100 µM (inactive)
[8]
  GI50: > 100 µM (inactive)
[9]
  GI50: > 100 µM (inactive)
[10]
  GI50: > 100 µM (inactive)
[11]
  GI50: > 100 µM (inactive)
[12]
  GI50: > 100 µM
[13]
  GI50: > 100 µM (inactive)
[14]
  GI50: > 100 µM (inactive)
[16]
  GI50: > 100 µM (inactive)
[17]
  GI50: > 100 µM (inactive)
[18]
  GI50: > 100 µM (inactive)
[19]
  GI50: > 100 µM (inactive)
[21]
  GI50: > 100 µM (inactive)
[22]
  GI50: > 100 µM (inactive)
[23]
  GI50: > 100 µM (inactive)
[24]
  GI50: > 100 µM (inactive)
[25]
  GI50: > 100 µM (inactive)
[26]
  GI50: > 100 µM (inactive)
[27]
  GI50: > 100 µM (inactive)
[28]
  GI50: > 100 µM (inactive)
[29]
  GI50: > 100 µM (inactive)
[54]
  GI50: > 100 µM (inactive)
[30]
  GI50: > 100 µM (inactive)
[31]
  GI50: > 100 µM (inactive)
[32]
  GI50: > 100 µM (inactive)
[33]
  GI50: > 100 µM (inactive)
[34]
  GI50: > 100 µM (inactive)
[35]
  GI50: > 100 µM (inactive)
[36]
  GI50: > 100 µM (inactive)
[37]
  GI50: > 100 µM (inactive)
[38]
  GI50: > 100 µM (inactive)
[39]
  GI50: > 100 µM (inactive)
[40]
  GI50: > 100 µM (inactive)
[41]
  GI50: > 100 µM (inactive)
[42]
  GI50: > 100 µM (inactive)
[43]
  GI50: > 100 µM (inactive)
[44]
  GI50: > 100 µM (inactive)
[45]
  GI50: > 100 µM (inactive)
[46]
  GI50: > 100 µM (inactive)
[47]
  GI50: > 100 µM (inactive)
[48]
  GI50: > 100 µM (inactive)
[49]
  GI50: > 31.6 µM (inactive)
[50]
  GI50: > 100 µM (inactive)
[51]
  GI50: > 100 µM (inactive)
[52]
  GI50: > 100 µM (inactive)
[53]
  GI50: > 100 µM (inactive)
